From a melting point compilation (Tetko et al.) come the findings set out here.

The structures appear in SMILES notation.

As a reminder, the melting point is the temperature of the solid-liquid transition. With `CC(C)(C)OC(=O)N1CCC[C@H]1CO`, the melting point amounted to 61 °C.

As to `CC12CCC3C(C(=O)CC4CC(O)(C(Cl)(Cl)Cl)CCC43C)C1CCC2=O` (stereo not drawn), the melting point is 248 to 254 °C. The figure for `CN(C)c1nnc(Br)c(-c2nc(N(C)C)nnc2Br)n1` is 123 °C; for `O=CCO` it is 97 °C; for `CC12CCC(O)CC1CCC1C2CCC2(C)C(C3=CC(=O)OC3)C(O)CC12O` (stereo not drawn) it is 234 °C. The same measure for `OC1OC2(CCCCC2)Cc2ccccc21` (stereo not drawn): 89 °C; for `NNC(=O)c1ccncc1`: 171 °C; for `O=C(O)C(O)C(Cl)(Cl)Cl` (stereo not drawn): 125 °C. Take `CN(C(=O)OC(C)(C)C)C(C)(C)C(=O)O`: the melting point fell in the range of 153 to 157 °C.

For the compound `N#Cc1ccc(N=C=S)cc1`, the melting point was determined as 120 °C. For the compound `O=C(O)C=Cc1c(F)cccc1Cl`, the melting point lay within 163 to 165 °C. The same measure for `CC(C)(C)SC(C)(C)C`: -9 °C; for `Cc1nc(-c2ccc(S(=O)(=O)N(C)C)cc2)c(-c2ccc(S(=O)(=O)N(C)C)cc2)o1`: 208 to 211 °C. In turn, `C#CC1(O)CCC2C3CCC4CC(O)CCC4(C)C3CCC21C` (stereo not drawn) returned a melting point of 257 °C. The figure for `O=[N+]([O-])c1ccc2c(c1)=NC(c1cccc(C3N=c4cc([N+](=O)[O-])ccc4=C3O)c1)C=2O` (stereo not drawn) is 266 °C; for `COc1cc(OC)nc(Oc2cccc(Oc3nc(OC)cc(OC)n3)c2C(=O)ON=C(c2ccccc2)c2ccccc2)n1` it is 129 °C. Take `O=C(O)CSc1ccc(F)cc1`: the melting point was 78 °C. Take `Cc1cccc2c(O)c(C=C3C(=O)N(c4ccccc4)N=C3c3ccccc3)c(=O)[nH]c12`: the melting point was found to be 113 °C. Take `Nc1cc(-c2ccco2)[nH]n1`: the melting point came out at 126 °C. Consider `FC(F)(F)c1nnc(S)n1-n1cccc1`, for which the melting point came out at 165 °C. On to `O=[N+]([O-])c1ccc(Nc2ccc(O)cc2)c([N+](=O)[O-])c1`, for which the melting point is 194 °C. As for `CC(Oc1ccc(Oc2nc3ccc(Cl)cc3o2)cc1)C(=O)O` (stereo not drawn), the melting point stood at 158 °C. As to `CCCCCCC(C)(C)S`, the melting point is -43.1 °C. `Sc1c(Cl)c(Cl)cc(Cl)c1Cl` returned a melting point of 105 to 107 °C. In turn, `COC(=O)c1ccc(C2(C)C=CC=CC=C2)cc1` displayed a melting point of 61 °C. Compound `O=C1NCCN1c1ncc([N+](=O)[O-])s1` yielded a melting point of 261 °C. In the case of `O=CN(O)CC(=O)O`, the melting point was 120 °C. Regarding `CCCC(C)(N)P(=O)(O)O` (stereo not drawn), the melting point lay in the range of 258 to 262 °C. The figure for `NCC1CCCC(CN)C1` (stereo not drawn) is -70 °C; for `C=CCC(/C=C1\C(=O)C2(C)CCC1C2(C)C)(/C=C1\C(=O)C2(C)CCC1C2(C)C)C(=O)OCC` (stereo not drawn) it is 148 °C. The figure for `CC1(C)C(C(=O)OC(C#N)c2cccc(Oc3ccccc3)c2)C1C(Br)C(Br)(Br)Br` (stereo not drawn) is 143 °C; for `Brc1ccc2cc(Br)ccc2c1` it is 165 °C; for `c1ccc(-c2ccc(-c3nnc(-c4ccccc4)o3)cc2)cc1` it is 168 to 172 °C. `Cc1ccc(-c2ccccc2)cc1N`: the melting point lay within 58 to 60 °C. The figure for `CCOC(=O)c1c(NC(=S)NCc2ccccc2)sc2c1CCN(Cc1ccccc1)C2` is 135 to 138 °C.

As for `CC(=O)C1CCC2C3CCC4CC(=O)CCC4(C)C3CCC12C` (stereo not drawn), the melting point was 200 °C. Consider `N#Cc1cc(Cl)ccc1[N+](=O)[O-]`, for which the melting point was in the range of 89 to 94 °C. Turning to `CC(=O)Nc1ccccc1OC(F)(F)F`, the melting point is 68 to 70 °C. The same measure for `N#Cc1cc(Cl)nc(Cl)c1`: 96 to 97 °C; for `CC(=O)NC(C)C(=O)O` (racemic): 137 °C; for `C#CC1(O)CCC2C3CCc4cc(OC)ccc4C3CCC21C` (stereo not drawn): 150 °C. Compound `O=[N+]([O-])c1c(O)cc(O)cc1O` displayed a melting point of 189 °C. Consider `COc1ccc(C(C)=O)c(OC)c1OC`, for which the melting point turned out to be 15.8 °C. The compound `CC(C)(C)N(NC(=O)c1ccccc1)C(=O)c1cccc(F)c1` came in with a melting point of 176 °C.

For `O=C(O)c1ccncc1`, the melting point was 315 °C. For `O=C1C=CC(=Nc2ccc(O)cc2)C=C1`, the melting point was found to be 160 °C. The figure for `Cc1ccc2ccc(=O)oc2c1` is 128 °C; for `C=CCN1CCC23c4c5ccc(O)c4OC2C(O)C=CC3C1C5` (stereo not drawn) it is 208 °C. In the case of `Cc1ccc(N)cc1O`, the melting point was in the range of 160 to 165 °C. Consider `CCC1(CC)C(=O)NC(=O)NC1=O`, for which the melting point was found to be 190 °C. `Clc1ccc(I)cn1` gave a melting point of 97 °C. Regarding `NNc1ncccc1[N+](=O)[O-]`, the melting point turned out to be 165 °C. Turning to `CC1(C)CC(=O)C2=C(C1)Nc1ccc3ccccc3c1C2c1ccc(O)cc1` (stereo not drawn), the melting point is 314 °C.

`O=C1OC(c2ccc(O)c3ccccc23)(c2ccc(O)c3ccccc23)c2ccccc21` yielded a melting point of 254 °C. Compound `Cn1ncc2c(=N)n(N)cnc21` returned a melting point of 185 °C. The figure for `COc1ccc2cc(CCC(C)=O)ccc2c1` is 80 °C; for `O=c1[nH]nc2oc3ccccc3cc1-2` it is 220 °C; for `O=Cc1ccc(-c2ccccc2)nc1` it is 57 to 59 °C. The same measure for `CCOC(=O)c1sc2sc(C(=O)OCC)c(NC(=O)c3ccccc3)c2c1NC(=O)c1ccccc1`: 286 °C; for `Cc1ccc(O)c(C(C)C)c1`: 36.5 °C. The same measure for `CCOC(=O)c1c(NC(=O)CN2CCCCC2)sc2c1CCCC2`: 100 to 101 °C; for `NNc1ccccc1C(F)(F)F`: 60 °C; for `C1COC1`: -97 °C. For the compound `NNC(=S)NCc1cccnc1`, the melting point is 171 to 173 °C. `CCOC(=O)CCCC(=O)OCC` yielded a melting point of -24.1 °C. The figure for `O=C(CBr)c1ccc2c(c1)OCCO2` is 115 to 116 °C. On to `Nc1c(Cl)c(F)nc(OCC(=O)O)c1Cl`, for which the melting point stood at 232 °C.

In turn, `CCCCCCCCCCCCCC(=O)Cl` displayed a melting point of -1 °C.

In the case of `CC(=O)OCC1OC(n2cnc3c(N)ncnc32)C(OC(C)=O)C1OC(C)=O` (stereo not drawn), the melting point is 174 to 175 °C.

As for `Cc1ccccc1CC(NC(=O)OC(C)(C)C)C(=O)O` (racemic), the melting point is 125 to 129 °C.

Compound `CCCCCC=O` yielded a melting point of -56 °C. In turn, `O=C(O)CCSCCCSCCC(=O)O` displayed a melting point of 107 to 109 °C.

Consider `CC(C)(C)[C@H]1CC[C@H](C(=O)O)CC1`, for which the melting point lay in the range of 170 to 175 °C. In turn, `O=C(O)CCc1ccco1` registered a melting point of 58 °C. On to `CC(=O)Nc1c(F)ccc([N+](=O)[O-])c1F`, for which the melting point fell in the range of 148 to 149 °C. `O=C(O)c1cccc(Cn2cncn2)c1` had a melting point of 209 to 210 °C. Compound `CC1Cc2ccccc2N1NC(=O)c1ccc(Cl)c(S(N)(=O)=O)c1` (stereo not drawn) showed a melting point of 161 °C.

Compound `COc1ccc(F)cc1CBr` had a melting point of 60 °C.
